In brackets after ≈: the same amount, converted by molar mass.
What was measured:
Test in all cases: in vitro antibacterial activity (MIC), conventional agar dilution
Format in all cases: cell-based
Acinetobacter sp CMX 669 = details: CMX669, brain-heart infusion agar, inoculum 10^4 /plate
Method: (§1) The in vitro antibacterial activity is determined by conventional agar dilution procedures. A brain-heart infusion agar medium containing the drug is inoculated with a microbial culture cultivated on a brain-infusion broth (Difco 0037-01-6) at 36° C. for 18 hours and then observes for growth of the microorganism. The minimum concentration at which growth of the microorganism is inhibited is taken as MIC (ug/ml). The inoculum size is 10^4 /plate.

E. coli Juhl = details: Escherichia coli, brain-heart infusion agar, inoculum 10^4 /plate
Method: as §1

[1] = test system: Ent. aerogenes ATCC 13048; details: Klebsiella aerogenes, ATCC13048, brain-heart infusion agar, inoculum 10^4 /plate
Method: as §1

Ent. faecium ATCC 8043 = details: Enterococcus faecium, ATCC8043, brain-heart infusion agar, inoculum 10^4 /plate
Method: as §1

K. pneumoniae ATCC 8045 = details: Klebsiella pneumoniae, ATCC8045, brain-heart infusion agar, inoculum 10^4 /plate
Method: as §1

P. aeruginosa A5007 = details: Pseudomonas aeruginosa, brain-heart infusion agar, inoculum 10^4 /plate
Method: as §1

P. stuartii CMX 640 = details: Providencia stuartii, CMX640, brain-heart infusion agar, inoculum 10^4 /plate
Method: as §1

Stap. aureus ATCC-6538p = details: Staphylococcus aureus, ATCC6538P, brain-heart infusion agar, inoculum 10^4 /plate
Method: as §1

Stap. epidermis 3519 = details: brain-heart infusion agar, inoculum 10^4 /plate
Method: as §1

Strep. Pyogenes EES61 = details: Streptococcus pyogenes, brain-heart infusion agar, inoculum 10^4 /plate
Method: as §1

SMILES	MIC (Acinetobacter sp CMX 669) [µg/mL]	MIC (E. coli Juhl) [µg/mL]	MIC [1] [µg/mL]	MIC (Ent. faecium ATCC 8043) [µg/mL]	MIC (K. pneumoniae ATCC 8045) [µg/mL]	MIC (P. aeruginosa A5007) [µg/mL]	MIC (P. stuartii CMX 640) [µg/mL]	MIC (Stap. aureus ATCC-6538p) [µg/mL]	MIC (Stap. epidermis 3519) [µg/mL]	MIC (Strep. Pyogenes EES61) [µg/mL]
CN1CCN(c2cc3c(cc2F)c(=O)c2c(=O)[nH]sc2n3-c2ccc(F)cc2)CC1 [46(a), 9-p-fluorophenyl-6-fluoro-7-(4-methyl-1-piperazinyl)-2,3,4,9-tetrahydroisothiazolo[5,4-b]quinoline-3,4-dione]	0.2 (≈ 0.467 µM)	0.2 (≈ 0.467 µM)	0.39 (≈ 0.91 µM)	1.56 (≈ 3.64 µM)	0.1 (≈ 0.233 µM)	1.56 (≈ 3.64 µM)	12.5 (≈ 29.2 µM)	0.01 (≈ 0.0233 µM)	0.2 (≈ 0.467 µM)	1.56 (≈ 3.64 µM)
CC1CN(c2cc3c(cc2F)c(=O)c2c(=O)[nH]sc2n3-c2ccc(F)cc2)CCN1 (stereo not drawn) [46(b), 9-p-fluorophenyl-6-fluoro-7-(3-methyl-1-piperazinyl)-2,3,4,9-tetrahydroisothiazolo[5,4-b]quinoline-3,4-dione]	0.1 (≈ 0.233 µM)	0.05 (≈ 0.117 µM)	0.02 (≈ 0.0467 µM)	0.78 (≈ 1.82 µM)	0.01 (≈ 0.0233 µM)	1.56 (≈ 3.64 µM)	6.2 (≈ 14.5 µM)	0.01 (≈ 0.0233 µM)	0.2 (≈ 0.467 µM)	0.78 (≈ 1.82 µM)
CCn1c2cc(N3CCCC3)c(F)cc2c(=O)c2c(=O)[nH]sc21 [46(bbb), 9-ethyl-6-fluoro-7-(1-pyrrolidinyl)-2,3,4,9-tetrahydroisothiazolo[5,4-b]quinoline-3,4-dione]	0.2 (≈ 0.6 µM)	0.05 (≈ 0.15 µM)	0.2 (≈ 0.6 µM)	0.2 (≈ 0.6 µM)	0.05 (≈ 0.15 µM)	0.2 (≈ 0.6 µM)	> 100	0.01 (≈ 0.03 µM)	0.02 (≈ 0.06 µM)	1.56 (≈ 4.68 µM)
CCn1c2s[nH]c(=O)c2c(=O)c2cc(F)c(N3CCN(C)CC3)c(F)c21 [46(cc), 9-ethyl-6,8-difluoro-7-(4-methyl-1-piperazinyl)-2,3,4,9-tetrahydroisothiazolo[5,4-b]quinoline-3,4-dione]	0.1 (≈ 0.263 µM)	0.1 (≈ 0.263 µM)	0.2 (≈ 0.526 µM)	0.39 (≈ 1.03 µM)	0.05 (≈ 0.131 µM)	3.1 (≈ 8.15 µM)	3.1 (≈ 8.15 µM)	0.1 (≈ 0.263 µM)	0.2 (≈ 0.526 µM)	0.78 (≈ 2.05 µM)
CCn1c2s[nH]c(=O)c2c(=O)c2cc(F)c(N3CCNCC3)c(F)c21 [46(dd), 9-ethyl-6,8-difluoro-7-(piperazinyl)-2,3,4,9-tetrahydroisothiazolo[5,4-b]quinoline-3,4-dione]	0.2 (≈ 0.546 µM)	0.05 (≈ 0.136 µM)	0.05 (≈ 0.136 µM)	0.2 (≈ 0.546 µM)	0.05 (≈ 0.136 µM)	0.78 (≈ 2.13 µM)	0.78 (≈ 2.13 µM)	0.05 (≈ 0.136 µM)	0.05 (≈ 0.136 µM)	0.39 (≈ 1.06 µM)
CC1CN(c2cc3c(cc2F)c(=O)c2c(=O)[nH]sc2n3-c2ccc(F)cc2F)CC1N (stereo not drawn) [46(g), 9-o,p-difluorophenyl-6-fluoro-7-(3-amino-4-methyl-1-pyrrolidinyl)-2,3,4,9-tetrahydroisothiazolo[5,4-b]quinoline-3,4-dione]	0.1 (≈ 0.224 µM)	0.05 (≈ 0.112 µM)	0.1 (≈ 0.224 µM)	0.2 (≈ 0.448 µM)	0.1 (≈ 0.224 µM)	0.78 (≈ 1.75 µM)	0.39 (≈ 0.874 µM)	0.05 (≈ 0.112 µM)	0.1 (≈ 0.224 µM)	0.78 (≈ 1.75 µM)
CCn1c2cc(N3CCN(C)CC3)c(F)cc2c(=O)c2c(=O)[nH]sc21 [46(l), 9-ethyl-6-fluoro-7-(4-methyl-1-piperazinyl)-2,3,4,9-tetrahydroisothiazolo[5,4-b]quinoline-3,4-dione]	0.05 (≈ 0.138 µM)	0.05 (≈ 0.138 µM)	0.1 (≈ 0.276 µM)	0.2 (≈ 0.552 µM)	0.05 (≈ 0.138 µM)	0.39 (≈ 1.08 µM)	1.56 (≈ 4.3 µM)	0.05 (≈ 0.138 µM)	0.1 (≈ 0.276 µM)	0.39 (≈ 1.08 µM)
CCn1c2cc(N3CCNCC3)c(F)cc2c(=O)c2c(=O)[nH]sc21 [46(m), 9-ethyl-6-fluoro-7-(1-piperazinyl)-2,3,4,9-tetrhydroisothiazolo[5,4-b]quinoline-3,4-dione]	0.39 (≈ 1.12 µM)	0.1 (≈ 0.287 µM)	0.2 (≈ 0.574 µM)	0.39 (≈ 1.12 µM)	0.05 (≈ 0.144 µM)	0.2 (≈ 0.574 µM)	0.39 (≈ 1.12 µM)	0.1 (≈ 0.287 µM)	0.2 (≈ 0.574 µM)	0.2 (≈ 0.574 µM)
O=c1[nH]sc2c1c(=O)c1cc(F)c(N3CCC(O)C3)cc1n2C1CC1 (stereo not drawn) [46(ss), 9-cyclopropyl-6-fluoro-7-(3-hydroxy-1-pyrrolidinyl)-2,3,4,9-tetrahydroisothiazolo[5,4-b]quinoline-3,4-dione]	0.02 (≈ 0.0553 µM)	0.02 (≈ 0.0553 µM)	0.05 (≈ 0.138 µM)	0.2 (≈ 0.553 µM)	≤ 0.005	0.39 (≈ 1.08 µM)	0.78 (≈ 2.16 µM)	0.005 (≈ 0.0138 µM)	0.01 (≈ 0.0277 µM)	0.39 (≈ 1.08 µM)
CCn1c2cc(N3CCNC(C)C3)c(F)cc2c(=O)c2c(=O)[nH]sc21 (stereo not drawn) [46(ww), 9-ethyl-6-fluoro-7-(3-methyl-1-piperazinyl)-2,3,4,9-tetrahydroisothiazolo[5,4-b]quinoline-3,4-dione]	0.2 (≈ 0.552 µM)	0.1 (≈ 0.276 µM)	0.1 (≈ 0.276 µM)	0.78 (≈ 2.15 µM)	0.2 (≈ 0.552 µM)	0.39 (≈ 1.08 µM)	1.56 (≈ 4.3 µM)	0.05 (≈ 0.138 µM)	0.1 (≈ 0.276 µM)	0.78 (≈ 2.15 µM)
CCn1c2s[nH]c(=O)c2c(=O)c2cc(F)c(N3CCNC(C)C3)c(F)c21 (stereo not drawn) [46(xx), 9-ethyl-6,8-difluoro-7-(3-methyl-1-piperazinyl)-2,3,4,9-tetrahydroisothiazolo[5,4-b]quinoline-3,4-dione]	0.1 (≈ 0.263 µM)	0.05 (≈ 0.131 µM)	0.1 (≈ 0.263 µM)	0.78 (≈ 2.05 µM)	0.005 (≈ 0.0131 µM)	1.56 (≈ 4.1 µM)	3.1 (≈ 8.15 µM)	0.1 (≈ 0.263 µM)	0.2 (≈ 0.526 µM)	0.39 (≈ 1.03 µM)
O=c1[nH]sc2c1c(=O)c1cc(F)c(N3CCNCC3)cc1n2-c1ccc(F)cc1 [46(yy), 9-p-fluorophenyl-6-fluoro-7-(1-piperozinyl)-2,3,4,9-tetrahydroisothiazolo[5,4-b]quinoline-3,4-dione]	0.2 (≈ 0.483 µM)	0.05 (≈ 0.121 µM)	0.1 (≈ 0.241 µM)	0.78 (≈ 1.88 µM)	0.02 (≈ 0.0483 µM)	0.78 (≈ 1.88 µM)	3.1 (≈ 7.48 µM)	0.1 (≈ 0.241 µM)	0.2 (≈ 0.483 µM)	0.78 (≈ 1.88 µM)
O=c1[nH]sc2c1c(=O)c1cc(F)c(N3CCNCC3)cc1n2C1CC1 [46(zz), 9-cyclopropyl-6-fluoro-7-(1-piperazinyl)-2,3,4,9-tetrahydroisothiazolo[5,4-b]quinoline-3,4-dione]	0.05 (≈ 0.139 µM)	0.005 (≈ 0.0139 µM)	0.01 (≈ 0.0277 µM)	0.1 (≈ 0.277 µM)	0.005 (≈ 0.0139 µM)	0.05 (≈ 0.139 µM)	0.2 (≈ 0.555 µM)	0.02 (≈ 0.0555 µM)	0.05 (≈ 0.139 µM)	0.05 (≈ 0.139 µM)
Cl.NC1CCN(c2cc3c(cc2F)c(=O)c2c(=O)[nH]sc2n3C2CC2)C1 (stereo not drawn) [47(b), 9-cyclopropyl-6-fluoro-7-(3-amino-1-pyrrolidinyl)-2,3,4,9-tetrahydroisothiazolo[5,4-b]quinoline-3,4-dione hydrochloride]	0.05	0.05	0.01	0.1	0.005	0.2	0.39	0.02	0.05	0.05
CCn1c2s[nH]c(=O)c2c(=O)c2cc(F)c(N3CCC(N)C3)c(F)c21 (stereo not drawn) [47(g), 9-ethyl-6,8-difluoro-7-(3-amino-1-pyrrolidinyl)-2,3,4,9-tetrahydroisothiazolo[5,4-b]quinoline-3,4-dione]	0.1 (≈ 0.273 µM)	0.01 (≈ 0.0273 µM)	0.02 (≈ 0.0546 µM)	0.2 (≈ 0.546 µM)	0.01 (≈ 0.0273 µM)	0.78 (≈ 2.13 µM)	0.78 (≈ 2.13 µM)	0.05 (≈ 0.136 µM)	0.1 (≈ 0.273 µM)	0.78 (≈ 2.13 µM)

— US4767762A, “Tricyclic quinoline and naphthyride antibacterials” (Abbott Laboratories, priority 1986, dated 1988)
